These results are taken from PubChem BioAssay AID1159557 (GlaxoSmithKline (GSK), 2015).

Active and inactive are the calls of the source. No rule for the calls is given here.

The test concerns Trypanosoma brucei growth inhibition. Put plainly: T. brucei growth inhibition (AID 1159557).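 Also: parasites exposed to compound for 48 h before the resazurin readout.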
Usually IC50 stands for the concentration that gives 50% inhibition. In the case of `Cc1nc(C(=O)Nc2ccc3c(c2)OCO3)nn1-c1ccc(Cl)cc1`, the IC50 was > 40 µM (inactive).

Consider `CC1=NN(C(=O)CCn2cnc([N+](=O)[O-])n2)C(O)(C(F)(F)F)C1` (stereo not given), for which the IC50 was > 40 µM (inactive). In the case of `N#Cc1cc(N2CCCC2=O)ccc1Sc1ccccc1CO` it was 40 µM.

Take `COc1ccc(Nc2nc(NC3CCC(O)CC3)ncc2Br)c(C(N)=O)c1` (stereo not given): the IC50 was 0.1 µM.

As to `CC(C)Oc1cccc(N2CCC(C(=O)N3CCCN(C(C)C)CC3)CC2)c1`, the IC50 was > 40 µM (inactive). As for `NS(=O)(=O)c1ccc(Nc2nccc(-c3cnn4ncccc34)n2)cc1`, the IC50 was 0.079 µM. Take `O=c1cc(NCCCNCc2cc(C(F)(F)F)cs2)[nH]c2ccccc12`: the IC50 is 0.32 µM.

Consider `O=C(c1ccc(OCCCc2cnc[nH]2)cc1)C1CC1`, for which the IC50 was 10 µM.

Take `Cc1ccccc1NS(=O)(=O)c1ccc2[nH]cc(C(=O)NC3CCCC3)c(=O)c2c1`: the IC50 is 0.32 µM. In the case of `O=C(NCCc1nc(-c2ccc(F)c(F)c2)n[nH]1)C1CCCCC1` it was 0.5 µM; in that of `Cc1ccc2sc(NC(=O)Cn3cnc([N+](=O)[O-])n3)nc2c1`, 25 µM. Next, `Cc1ccccc1CNC(=O)CN(Cc1ccccn1)Cc1ccccn1`: 6.3 µM. In the case of `N#Cc1cccc(CN2CCC(c3nc(-c4ccc(C(F)(F)F)nc4)no3)CC2)c1` it was > 40 µM (inactive); in that of `N#Cc1cccc(Nc2nccc(N3CCC(NS(=O)(=O)c4cccc(C#N)c4)CC3)n2)c1`, 6.3 µM. `CC(C)N(C(=O)CN1C(=O)C(N)C(=O)N(c2ccccc2)c2ccccc21)c1ccccc1` (stereo not given): the IC50 is > 40 µM (inactive). Next, `O=C(CN1CCC2(O)CCCCC2C1c1ccc2c(c1)OCO2)Nc1ccc(Cl)cc1Cl` (stereo not given): 13 µM; `COc1ccc(-c2cc(C)no2)cc1S(=O)(=O)Nc1ccc(F)c(Cl)c1`: 16 µM. In the case of `Cc1c(C(C)NC(=O)Nc2cccc(Cl)c2)sc2ncnn12` (stereo not given) it was 20 µM; in that of `Cc1cccc(NS(=O)(=O)c2cnc3sc(C)cn3c2=O)c1`, > 40 µM (inactive). Consider `CC(C)(C)Nc1nc(-c2ccccn2)nc2ccccc12`, for which the IC50 was 6.3 µM.

For `O=C(NCCc1csc(-c2cccc(F)c2)n1)c1ccco1`, the IC50 was 0.5 µM. With `Cc1ccc(CNC2CCN(C[C@@H]3Cn4c(=O)ccc5ccc(=O)n3c54)CC2)cc1F`, the IC50 was 1.6 µM. Next, `c1ccc(Nc2nc(-c3ccccn3)cc(N3CCOCC3)n2)cc1`: 16 µM; `O=C(NCC1CCCCC1)c1cc(=O)c2ccccc2o1`: 1 µM. Take `Cc1ccc(NC(=O)C(C)n2nc([N+](=O)[O-])c(Br)c2C)cc1Cl` (stereo not given): the IC50 is 16 µM. Next, `COc1ccc(OC)c(NC(=O)c2ccc([N+](=O)[O-])o2)c1`: 0.016 µM. Next, `COc1cnc2ccc(=O)n(CCN3CCC(NC(=O)Cc4ccc(Cl)c(Cl)c4)CC3)c2c1`: 0.25 µM; `COc1ccc2ncc(Cl)c(CCN3CC[C@@H](NCc4cc5c(cn4)OCS5)[C@H](O)C3)c2n1`: 0.32 µM; `CC(Cn1ccnc1)NC(=O)COc1ccc(Cl)c(Cl)c1` (stereo not given): > 40 µM (inactive). Next, `CN(C)Cc1ccc(N2CCC(NS(=O)(=O)c3ccc(Cl)cc3)CC2)cc1`: 25 µM; `CC(C)C[C@H](NC(=O)c1ccc(-c2ccccc2)o1)C(=O)NC1(C#N)CC1`: 0.1 µM; `COc1cc(Nc2nccc(Nc3onc(C)c3C)n2)cc(S(=O)(=O)C2CCOCC2)c1`: 0.5 µM. Turning to `CCC1Oc2cc(S(=O)(=O)N(C)CC(=O)N3CCc4ccccc4C3)c(C)cc2NC1=O` (stereo not given), the IC50 is 25 µM. In the case of `CCCCCNC(=O)c1c[nH]c2ccc(S(=O)(=O)N(C)c3ccc(OCC)cc3)cc2c1=O` it was 0.32 µM.

Take `Cc1cccc(Nc2nc(-c3ccccn3)cs2)n1`: the IC50 is 1 µM. As for `O=C(N1CCc2ccccc2CC1)C1(C(=O)N2CCC(n3c(=O)[nH]c4ncccc43)CC2)CC1`, the IC50 is > 40 µM (inactive).

As to `c1ccc(CCNCc2cncc3nc(-c4cnccn4)n(C4CCCCC4)c23)cc1`, the IC50 is 32 µM.

On to `CCN(CC)S(=O)(=O)c1ccc(C)c(NC(=O)c2cc(Cl)c3c(c2)OCO3)c1`, for which the IC50 is 0.32 µM. `COc1ccc2ncc(Cl)c(CCN3CC[C@H](NCc4cc5c(cn4)OCS5)[C@@H](O)C3)c2n1`: the IC50 is 0.32 µM. In the case of `Cn1cncc1CN1CCC2(CC1)COC(Cc1ccccc1)C2` (stereo not given) it was > 40 µM (inactive). For `Cc1cc(C)n(-c2nc(NC(C)(C)C)nc(N3CCOCC3)n2)n1`, the IC50 was 13 µM. Consider `CNc1c(C(N)=O)c(-c2ccc3scnc3c2)nn1CC(F)(F)F`, for which the IC50 was 32 µM. Turning to `O=c1cc(NCCCNC2CCOc3c(I)cc(Cl)cc32)[nH]c2ccccc12` (stereo not given), the IC50 was 0.01 µM. In the case of `CC(C(=O)Nc1ccccc1F)N(C)CC(=O)Nc1cccc2ccccc12` (stereo not given) it was 25 µM; in that of `Cn1nccc1NC(=O)Cn1ccc(-c2ccncc2)n1`, 0.63 µM; in that of `O=C(CSc1nnc2ccc(-c3ccc(F)cc3)nn12)N1CCCCC1`, 0.4 µM.

In the case of `O=C(NCc1nnc2n1CCCCC2)c1csc(-c2ccccc2)n1`, the IC50 was 0.32 µM. In the case of `CCc1nn(-c2ncc(F)c(NC(C)C)n2)c(N)c1C1CCCCC1` it was 10 µM; in that of `CCc1ccc2nc(NC(=O)c3cc(N4CCOCC4)ccn3)sc2c1`, 0.5 µM; in that of `NC(=O)c1ncc(N[C@@H]2CCCNC2)nc1Nc1cccc(Cl)c1`, 0.13 µM. Next, `NC(=O)c1ncccc1Nc1nc(NC2CCC(O)CC2)ncc1Br` (stereo not given): 0.32 µM; `CS(=O)(=O)c1cccc(-c2cnc(N)c3c(-c4ccc(CO)cc4)csc23)c1`: 2 µM; `Cn1nc([N+](=O)[O-])nc1N1CCCCC1`: > 40 µM (inactive). Regarding `Cn1nc(C(=O)N2CCc3ccccc32)c2c1CCS(=O)(=O)C2`, the IC50 was 4 µM. In the case of `Cc1cc(Nc2ccc(C#N)c(Cl)c2C)n[nH]1` it was 0.0079 µM; in that of `CCC(=O)Nc1ccc(C(=O)Nc2ccccc2-c2ccccc2)cc1`, 20 µM; in that of `O=C(NCC1CCCCC1)c1cnns1`, 1 µM. Next, `CN(Cc1ccccc1)Cc1nnnn1C1CCN(Cc2ccc(-n3ccnc3)cc2)CC1`: > 40 µM (inactive). In the case of `COCc1cnc2c(c1SCc1c(F)cccc1Cl)c(=O)n(C)c(=O)n2C` it was 4 µM. With `CN(C)Cc1cccc(Nc2nccc(-c3ccc(NCCN)c(C#N)c3)n2)c1`, the IC50 was 0.05 µM. Next, `c1cncc(CN(Cc2ccco2)Cc2cn[nH]c2-c2cccs2)c1`: 25 µM; `CS(=O)(=O)NC1CCC(Nc2ncc(Br)c(Nc3ccccc3C(N)=O)n2)CC1` (stereo not given): 0.16 µM; `Cc1ccc(C)c(-n2nnnc2Sc2nc([N+](=O)[O-])nn2C)c1`: 13 µM. In the case of `CCCCn1c(=O)c2c(N)onc2n(CCCC)c1=O` it was 0.63 µM; in that of `COc1ccc2nccc([C@H](O)CN3CC[C@H](NC(=O)c4ccc(Br)cc4)[C@@H](O)C3)c2n1`, 0.2 µM. In the case of `CCCN1CCN(Cc2ccc(S(=O)(=O)Nc3cccc(C)c3)cc2)CC1` it was 25 µM; in that of `COc1cc(Cl)c(C)cc1NC(=O)c1ccc([N+](=O)[O-])s1`, 0.5 µM.

For the compound `O=c1[nH]ccc2ccc(-c3ccncc3)cc12`, the IC50 is 32 µM. In the case of `CCn1nccc1CN(C)C(=O)C=Cc1ccc(Cl)cc1` it was 32 µM; in that of `O=C(NCCc1cccnc1)c1csc(-c2ccccc2)n1`, 25 µM. Next, `COc1ccc(-c2csc(NC(=O)c3ccc([N+](=O)[O-])s3)n2)cc1`: 0.079 µM; `OC[C@@H](Nc1nccc(-c2c(-c3ccc(F)cc3)ncn2C2CCNCC2)n1)c1ccccc1`: 0.4 µM; `COc1ccc(S(=O)(=O)Nc2ccc(CN3CCN(C(=O)c4cccc(C#N)c4)CC3)cc2)cc1`: 0.4 µM. Next, `COc1ccc(C(=O)N2CCC(Nc3cccnc3)C2)c(OC)n1` (stereo not given): > 40 µM (inactive); `O=c1cc(NCCCNCc2c[nH]c3ccc(Br)cc23)[nH]c2ccccc12`: 1 µM. On to `Nc1nc(-c2ccccn2)nc(N)c1Cc1c(F)cccc1Cl`, for which the IC50 was 2.5 µM. Next, `COc1ccc2ncc(F)c(CCN3CC[C@@H](NC(=O)c4cc5c(s4)CCC5)[C@@H](O)C3)c2n1`: 0.1 µM. Take `Clc1ccc(OCCN2CCCCC2c2cccnc2)c(Cl)c1` (stereo not given): the IC50 is 32 µM. In the case of `Cc1nc2c(-c3ncn[nH]3)cc(NC(=O)Cc3ccccc3)cn2c1C` it was 3.2 µM; in that of `CC(C)CC(=O)Nc1cc(C2CC2)nn1-c1nc2c(c(=O)[nH]1)CCCC2`, 0.2 µM; in that of `Cc1[nH]c2ccccc2c(=O)c1Cc1c(C)[nH]c2ccccc2c1=O`, > 40 µM (inactive). In the case of `O=C(C1CCCCC1)N1CCN(c2nnc(-c3ccccc3)c3ccccc23)CC1` it was 10 µM; in that of `CCC(c1ccc(F)cc1)n1cncc1-c1cnn(C)c1` (stereo not given), > 40 µM (inactive).

For the compound `CN(C)S(=O)(=O)c1ccc(Cl)c(C(=O)Nc2nc(-c3ccccn3)cs2)c1`, the IC50 was 0.5 µM.

In the case of `O=C(CN1CCN(c2ccccn2)CC1)Nc1cc(S(=O)(=O)N2CCCCCC2)ccc1Cl`, the IC50 is 13 µM. Turning to `Cc1nccn1C1CCCN(C(=O)c2cc3c(F)cccc3s2)C1` (stereo not given), the IC50 is > 40 µM (inactive). In the case of `CNc1cncc(C2CCCN2C(=O)Cc2ccc3ccccc3c2)n1` (stereo not given) it was > 40 µM (inactive); in that of `Cc1cnc(Nc2cc(Cc3ccccc3)nc(NC3CCC(O)CC3)n2)s1` (stereo not given), 0.025 µM. Turning to `CCNc1cc(-c2ccccn2)nc(Nc2ccccc2)n1`, the IC50 was 25 µM. Next, `Cc1ccc(Nc2nc(N)nc(CNC(c3nc4ccccc4[nH]3)C(C)C)n2)cc1` (stereo not given): 7.9 µM; `CC(C)(C)c1cc(NC2CC2)nc(-c2ccccn2)n1`: 7.9 µM; `Cc1cccc(NS(=O)(=O)c2ccc3c(c2)C(=O)c2cc(S(=O)(=O)Nc4cccc(C)c4C)ccc2-3)c1C`: 7.9 µM. As to `COc1cc(OC)cc(C(NS(=O)(=O)c2ccc(Cl)c(C(F)(F)F)c2)c2nccn2C)c1` (stereo not given), the IC50 is 7.9 µM.

For the compound `CS(=O)(=O)c1ccc(Nc2nccc(Nc3n[nH]c4ccc(F)cc34)n2)c(F)c1`, the IC50 was 0.5 µM.

On to `Cc1ccc(C)c(CN2C(=O)NC3(CCc4ccccc43)C2=O)c1` (stereo not given), for which the IC50 is 0.5 µM.
